The values that follow come from US5578596A, “2-alkoxy-5,6,7,8-tetrahydroquinoxaline derivatives, and production method and use thereof” (Asahi Kasei Kogyo Kabushiki Kaisha, priority 1992, dated 1996).

The target in test [1] is T1, serotonin 1A (5HT1A) receptor (Rattus norvegicus, UniProt P19327).
T1 construct: The resultant precipitate was used as a rat hippocampal membrane fraction in the following procedures; from tissue; host or cells: hippocampal membrane fraction of male SD rat (7 weeks old; animals from Charles River)
T1 sequence (P19327 1-422): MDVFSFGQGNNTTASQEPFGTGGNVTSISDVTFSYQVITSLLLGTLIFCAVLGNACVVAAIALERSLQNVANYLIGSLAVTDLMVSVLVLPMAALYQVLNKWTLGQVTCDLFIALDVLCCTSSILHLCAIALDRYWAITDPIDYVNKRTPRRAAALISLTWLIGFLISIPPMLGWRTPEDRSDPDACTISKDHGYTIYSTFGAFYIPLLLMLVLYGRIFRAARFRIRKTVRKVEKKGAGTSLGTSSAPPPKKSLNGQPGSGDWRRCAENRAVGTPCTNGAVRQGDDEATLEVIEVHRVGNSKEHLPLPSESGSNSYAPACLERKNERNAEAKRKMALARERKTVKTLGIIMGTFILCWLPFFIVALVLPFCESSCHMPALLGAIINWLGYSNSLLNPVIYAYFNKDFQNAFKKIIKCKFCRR
The experiment in a line: Affinity for serotonin 1A (5HT1A) receptor: inhibition of 3H-8-OH-DPAT binding to rat hippocampal membrane fraction. The settings on record: test compound as hydrochloride. The protocol: 1. Affinity for serotonin 1A (5HT1A) receptor
(A) Preparation of rat hippocampal membrane fraction
A male SD strain rat (7-week old; Charles River) was decapitated, and brain was taken out therefrom quickly. 50 mM Tris-HCl buffer (pH 7.4) was added to the brain under ice cooling to obtain a suspension. The resultant suspension was homogenized, and then subjected to centrifugation at 48000 g for 15 minutes, to thereby obtain a precipitate. The precipitate was resuspended in the same Tris-HCl buffer as used above. The resultant suspension was incubated at 30° C. for 20 minutes to decompose endogenous serotonin of the rat hippocampal membrane, followed by centrifugation at 48000 g for 15 minutes to thereby obtain a precipitate. The resultant precipitate was used as a rat hippocampal membrane fraction in the following procedures.
(B) Method for the evaluation of the binding ability of ^3 H-8-hydroxy-dipropylaminotetralin (^3 H-8-OH-DPAT) to serotonin 1A receptor
The rat hippocampal membrane fraction prepared in step (A) above (about 100 to 200 μg in terms of proteins) was reacted with 0.5 nM (final concentration) ^3 H-8-OH-DPAT (which is commercially available from DuPont-NEN Research Products) and 10 μM (final concentration) pargyline (which is commercially available from Sigma Chemical Company) at 30° C. for 30 minutes to effect a reaction. The resultant reaction mixture was subjected to suction filtration using a Whatman GF/C filter, to thereby terminate the reaction. The radio-activity of ^3 H-8-OH-DPAT adsorbed on the filter was determined using a liquid scintillation counter. The obtained value is regarded as a total amount (TB) of specifically binding ^3 H-8-OH-DPAT and non-specifically binding ^3 H-8-OH-DPAT.
On the other hand, substantially the same procedure as mentioned above was repeated, except that 10 μM (final concentration) serotonin was added to the ^3 H-8-OH-DPAT and pargyline. The radioactivity of ^3 H-8-OH-DPAT adsorbed on the filter was determined in the same manner as mentioned above. The obtained value is regarded as the amount (NB) of non-specifically binding ^3 H-8-OH-DPAT.
Further, substantially the same procedure as mentioned above was repeated, except that, instead of serotonin, a test compound was used in a predetermined concentration. The radioactivity of ^3 H-8-OH-DPAT adsorbed on the filter was determined in the same manner as mentioned above. The obtained value is regarded as the amount (DTB) of binding ^3 H-8-OH-DPAT.
(C) Calculation of Ki value
The inhibition ratio of the test compound (at a certain concentration) against the binding of 3H-8-OH-DPAT (the inhibition ratio is hereinafter referred to simply as "binding inhibition ratio") was calculated according to the following formula:
Binding inhibition ratio (%)=100-(DTB-NB).div.(TB-NB)×100
With respect to each of the test compounds, the binding inhibition ratios at various concentrations (from a higher concentration to a lower concentration) were determined. The binding inhibition ratios were plotted, taking the logarithmic value of the concentration of test compound as the abscissa value, and the binding inhibition ratio as the ordinate value. Then, a curve was drawn by non-linear least square method.
The Ki value was determined according to the following formula:
[L] is the concentration (0.2 nM) of a radioactive ligand (^3 H-8-OH-DPAT) used in the test;

The subject of test [2] is Suncus murinus (motion sickness emesis). Put plainly: Activities against motion sickness: acceleration-stimulus induced emesis in suncus. The test is classed as in vivo. The following applies: 30 min before acceleration-stimulus (4 cm, 1 Hz), observed 10 min, hydrochloride, 4 suncus. From the text:
The activities of individual compounds against motion sickness were examined using Suncus murinus. Suncus murinus is a small animal belonging to the Soricidae family. It has been known that suncus is likely to suffer from motion sickness and is susceptible to occurrence of emesis [see "Seitai-no-kagaku (Science of living body)", 41, 538 (1990)]. Suncus is likely to show symptoms like the symptoms of human motion sickness under the stimulus of simple acceleration, finally leading to the occurrence of emesis. It has been recognized that motion sickness is caused by the occurrence of disorder in information, such as vision, equilibrium sense and the like, or by a stimulus which has never been memorized. Further, it has been recognized that the disorder in the inner earvestibular nucleus pathway and the high-order function of brain take part in the occurrence of motion sickness. Therefore, medicines capable of suppressing the occurrence of emesis of suncus would be useful for preventing and treating motion sickness, space sickness, emesis, dizziness and the like.
In this test, test compounds were individually administered intraperitoneally to suncus.
The time for occurrence of emesis was measured with respect to each of the test compounds, and the results are shown in Table 3.

One may read the Ki as the dissociation constant of the complex between target and ligand, obtained from inhibition or displacement. Low readings indicate a stronger hold on the target, high ones a looser hold on the target.

Compound `Cc1ccc(C)c(N2CCN(CCCCOc3cnc4c(n3)CCCC4)CC2)n1` [Compound 598, 2-[4-{4-(3,6-Dimethyl-2-pyridyl)-1-piperazinyl}butoxy]-5,6,7,8-tetrahydroquinoxaline] returned a Ki in test [1] of 25 nM. Still for that read-out and setting: then `c1cnc(N2CCN(CCCOc3cnc4c(n3)CCCC4)CC2)nc1` [Compound 538, 2-[3-{4-(2-pyrimidinyl)-1-piperazinyl}propoxyl]-5,6,7,8-tetrahydroquinoxaline], with 25 nM; and `Cc1cc(C)nc(N2CCN(CCCCOc3cnc4c(n3)CCCC4)CC2)c1` [Compound 569, 2-[4-{4-(4,6-Dimethyl-2-pyridyl)-1-piperazinyl}butoxy]-5,6,7,8-tetrahydroquinoxaline], with 6.8 nM. Take `COc1cc(C)nc(N2CCN(CCCCOc3cnc4c(n3)CCCC4)CC2)n1` [Compound 562, 2-[4-{4-(4-Methoxy-6-methyl-2-pyrimidinyl)-1-piperazinyl}butoxy]-5,6,7,8-tetrahydroquinoxaline]: the Ki in test [1] was 11 nM. For the same compound, the “Time for occurrence of emesis” value in test [2] (3 mg/kg intraperitoneal) is listed as “Emesis did not occur”. `Cc1cc(C)c(C#N)c(N2CCN(CCCCOc3cnc4c(n3)CCCC4)CC2)n1` [Compound 561, 2-[4-{4-(3-Cyano-4-6-dimethyl-2-pyridyl)-1-piperazinyl}butoxy]-5,6,7,8-tetrahydroquinoxaline]: in test [1], the Ki was determined as 16 nM. The same measure, in the same setting: then `FC(F)(F)c1cccc(N2CCN(CCCCOc3cnc4c(n3)CCCC4)CC2)n1` [Compound 640, 2-[4-{4-(6-Trifluoromethyl-2-pyridyl)-1-piperazinyl}butoxy]-5,6,7,8-tetrahydroquinoxaline], with 5.2 nM. Compound `CCOc1cccc(N2CCN(CCCCOc3cnc4c(n3)CCCC4)CC2)n1` [Compound 524, 2-[4-{4-(6-Ethoxy-2-pyridyl)-1-piperazinyl}butoxy]-5,6,7,8-tetrahydroquinoxaline] returned a Ki in test [1] of 1.9 nM. For the same compound, the “Time for occurrence of emesis” value in test [2] (1 mg/kg intraperitoneal) is recorded as “Emesis did not occur”.

As for `Cc1nc2c(nc1OCCCCN1CCN(c3ccccn3)CC1)CCCC2` [Compound 409], in test [1], the Ki came to 16 nM. In test [1], `CCCOc1cccc(N2CCN(CCCCOc3cnc4c(n3)CCCC4)CC2)n1` [Compound 629, 2-[4-{4-(6-Propoxy-2-pyridyl)-1-piperazinyl}butoxy]-5,6,7,8-tetrahydroquinoxaline] returned a Ki of 1.8 nM. Moreover, the “Time for occurrence of emesis” value in test [2] (3 mg/kg intraperitoneal) is listed as “Emesis did not occur”. For the compound `CC(C)Oc1cccc(N2CCN(CCCCOc3cnc4c(n3)CCCC4)CC2)n1` [Compound 630, 2-[4-{4-(6-Isopropoxy-2-pyridyl)-1-piperazinyl}butoxy]-5,6,7,8-tetrahydroquinoxaline], in test [1], the Ki turned out to be 3 nM. In addition, in test [2] (3 mg/kg intraperitoneal), the “Time for occurrence of emesis” value is given as “Emesis did not occur”. In the case of `COc1cccnc1N1CCN(CCCCOc2cnc3c(n2)CCCC3)CC1` [Compound 557, 2-[4-{4-(3-Methoxy-2-pyridyl)-1-piperazinyl}butoxy]-5,6,7,8-tetrahydroquinoxaline], the Ki in test [1] was 1.5 nM. In turn, `Clc1cccnc1N1CCN(CCCCOc2cnc3c(n2)CCCC3)CC1` [Compound 502, 2-[4-{4-(3-Chloro-2-pyridyl)-1-piperazinyl}butoxy]-5,6,7,8-tetrahydroquinoxaline] showed a Ki in test [1] of 13 nM. Same read-out and setting: then `c1ccc(N2CCN(CCCCCOc3cnc4c(n3)CCCC4)CC2)nc1` [Compound 511, 2-[5-{4-(2-Pyridyl)-1-piperazinyl}pentoxy]-5,6,7,8-tetrahydroquinoxaline], with 8.4 nM. Regarding `Cc1ccnc(N2CCN(CCCCOc3cnc4c(n3)CCCC4)CC2)n1` [Compound 504, 2-[4-{4-(4-Methyl-2-pyrimidinyl)-1-piperazinyl}butoxy]-5,6,7,8-tetrahydroquinoxaline], the Ki in test [1] was found to be 3.9 nM. The “Time for occurrence of emesis” value in test [2] (1 mg/kg intraperitoneal) is “Emesis did not occur”.

In the case of `COc1cccc(N2CCN(CCCCOc3cnc4c(n3)CCCC4)CC2)n1` [Compound 539, 2-[4-{4-(6-Methoxy-2-pyridyl)-1-piperazinyl}butoxy]-5,6,7,8-tetrahydroquinoxaline], the affinity in test [1], expressed as Ki, was 1.3 nM. Besides, in test [2] (1 mg/kg intraperitoneal), the “Time for occurrence of emesis” value is reported as “Emesis did not occur”. `COc1cc(OC)nc(N2CCN(CCCCOc3cnc4c(n3)CCCC4)CC2)n1` [Compound 549, 2-[4-{4-(4,6-Dimethoxy-2-pyrimidinyl)-1-piperazinyl}butoxy]-5,6,7,8-tetrahydroquinoxaline] registered a Ki in test [1] of 6.6 nM. For `Clc1cccc(N2CCN(CCCCOc3cnc4c(n3)CCCC4)CC2)n1` [Compound 500, 2-[4-{4-(6-Chloro-2-pyridyl)-1-piperazinyl}butoxy]-5,6,7,8-tetrahydroquinoxaline], the Ki in test [1] stood at 2.1 nM. The “Time for occurrence of emesis” value in test [2] (1 mg/kg intraperitoneal) is “Emesis did not occur”. The compound `Cc1cc(C)nc(N2CCN(CCCCOc3cnc4c(n3)CCCC4)CC2)n1` [Compound 481, 2-[4-{4-(4,6-Dimethyl-2-pyrimidinyl)-1-piperazinyl}butoxy]-5,6,7,8-tetrahydroquinoxaline] registered a Ki in test [1] of 5.3 nM. In the case of `Cc1nc2c(nc1OCCCCN1CCN(c3ncccn3)CC1)CCCC2` [Compound 410], in test [1], affinity was put at a Ki of 24 nM. `Cc1cccc(N2CCN(CCCCOc3cnc4c(n3)CCCC4)CC2)n1` [Compound 501, 2-[4-{4-(6-Methyl-2-pyridyl)-1-piperazinyl}butoxy]-5,6,7,8-tetrahydroquinoxaline]: in test [1], the Ki was 0.6 nM. Besides, in test [2] (1 mg/kg intraperitoneal), the “Time for occurrence of emesis” value was “Emesis did not occur”. In turn, `c1ccc(N2CCN(CCCOc3cnc4c(n3)CCCC4)CC2)nc1` [Compound 537, 2-[3-{4-(2-Pyridyl)-1-piperazinyl}propoxy]-5,6,7,8-tetrahydroquinoxaline] showed a Ki in test [1] of 14 nM. As to `N#Cc1cccnc1N1CCN(CCCCOc2cnc3c(n2)CCCC3)CC1` [Compound 514, 2-[4-{4-(3-Cyano-2-pyridyl)-1-piperazinyl}butoxy]-5,6,7,8-tetrahydroquinoxaline], in test [1], the affinity, expressed as Ki, was 4.8 nM. In turn, `FC(F)(F)c1ccnc(N2CCN(CCCCOc3cnc4c(n3)CCCC4)CC2)c1` [Compound 639, 2-[4-{4-(4-Trifluoromethyl-2-pyridyl)-1-piperazinyl}butoxy]-5,6,7,8-tetrahydroquinoxaline] came in with a Ki in test [1] of 11 nM.

Turning to `c1cnc(N2CCN(CCCCCOc3cnc4c(n3)CCCC4)CC2)nc1` [Compound 512, 2-[5-{4-(2-pyrimidinyl)-1-piperazinyl}pentoxy]-5,6,7,8-tetrahydroquinoxaline], in test [1], the Ki was found to be 23 nM.
